# Key:
# [1] = GPCRScan assay: inhibition of GABA/PBR; set-up: species or system Rattus norvegicus; radioligand conc. used [nm] 0.3 – 2.0, parental cells brain tissue
# [2] = target: AP2-associated protein kinase 1 (Homo sapiens, UniProt Q2M2I8); assay: NanoBRET (SGC-FFM) (AAK1)
# [3] = target: Polyunsaturated fatty acid 5-lipoxygenase (Homo sapiens) (UniProt P09917); assay: 5LO Eurofins SafetyScreen44 (BI); conditions: Compound concentration 10.0 uM
# [4] = target: Adenosine receptor A1 (Homo sapiens) (UniProt P30542); assay: A1/HU Eurofins SafetyScreen44 (BI); conditions: Compound concentration 100.0 uM
# [5] = target: Nitric oxide synthase 3 (Rattus norvegicus) (UniProt Q62600); assay: CNOS Eurofins SafetyScreen44 (BI); conditions: Compound concentration 10.0 uM
# [6] = target: Sodium-dependent noradrenaline transporter (Homo sapiens) (UniProt P23975); assay: NETRANS/H Eurofins SafetyScreen44 (BI); conditions: Compound concentration 10.0 uM
# [7] = target: CDK2/Cyclin A1 (Homo sapiens) (UniProt P24941+P78396); assay: CDK2/CYCLIN A1 Invitrogen Lab (UK) kinase screen (BI); format: protein-complex assay; conditions: Compound concentration 1.0 uM
# [8] = target: Serine/threonine-protein kinase 38-like (Homo sapiens) (UniProt Q9Y2H1); assay: STK38L (NDR2) Invitrogen Lab (UK) kinase screen (BI); conditions: Compound concentration 1.0 uM
# [9] = target: CDK9/Cyclin K (Homo sapiens) (UniProt P50750+O75909); assay: CDK9_CYCLINK Invitrogen Lab (UK) kinase screen (BI); format: protein-complex assay; conditions: Compound concentration 1.0 uM
# [10] = target: Serine/threonine-protein kinase haspin (Homo sapiens) (UniProt Q8TF76); assay: GSG2 Invitrogen Lab (UK) kinase screen (BI); conditions: Compound concentration 1.0 uM
# [11] = target: Leucine-rich repeat serine/threonine-protein kinase 2 (Homo sapiens) (UniProt Q5S007); assay: LRRK2_FL Invitrogen Lab (UK) kinase screen (BI); conditions: Compound concentration 1.0 uM
# [12] = target: Sphingosine kinase 1 (Homo sapiens) (UniProt Q9NYA1); assay: SPHK1 Invitrogen Lab (UK) kinase screen (BI); conditions: Compound concentration 1.0 uM
# [13] = target: Dual specificity protein kinase TTK (Homo sapiens) (UniProt P33981); assay: TTK Invitrogen Lab (UK) kinase screen (BI); conditions: Compound concentration 1.0 uM
# [14] = target: Serine/threonine-protein kinase Nek6 (Homo sapiens) (UniProt Q9HC98); assay: NEK6 DUNDEE kinase screen (BI); conditions: Compound concentration 10.0 uM
# [15] = target: Alpha-1B adrenergic receptor (Homo sapiens) (UniProt P35368); conditions: Compound concentration 10.0 uM
# Sequence of Alpha-1B adrenergic receptor (Homo sapiens) (P35368 whole entry): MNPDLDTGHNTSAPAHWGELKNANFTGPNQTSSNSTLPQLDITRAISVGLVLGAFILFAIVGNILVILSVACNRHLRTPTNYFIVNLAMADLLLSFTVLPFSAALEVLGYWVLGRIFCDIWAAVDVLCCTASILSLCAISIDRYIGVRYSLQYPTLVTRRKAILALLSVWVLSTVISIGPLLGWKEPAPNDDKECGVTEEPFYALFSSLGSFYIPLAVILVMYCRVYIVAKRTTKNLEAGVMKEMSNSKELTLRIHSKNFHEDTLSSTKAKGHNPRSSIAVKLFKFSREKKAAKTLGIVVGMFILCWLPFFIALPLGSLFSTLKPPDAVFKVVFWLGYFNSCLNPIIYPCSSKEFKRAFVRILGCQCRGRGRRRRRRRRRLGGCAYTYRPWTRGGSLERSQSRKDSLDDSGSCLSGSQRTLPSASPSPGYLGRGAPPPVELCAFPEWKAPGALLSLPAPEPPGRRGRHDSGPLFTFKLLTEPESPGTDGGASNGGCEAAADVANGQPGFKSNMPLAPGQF
# [16] = target: Muscarinic acetylcholine receptor M3 (Homo sapiens) (UniProt P20309); conditions: Compound concentration 10.0 uM
# [17] = target: Nitric oxide synthase 3 (Bos taurus) (UniProt P29473); conditions: Compound concentration 10.0 uM
# Rattus norvegicus = species on record: Rattus norvegicus; conditions: Compound concentration 10.0 uM
# [18] = target: Cyclin-dependent kinase 4/cyclin D1 (Homo sapiens) (UniProt P11802+P24385); conditions: Compound concentration 1.0 uM
# [19] = target: Dual specificity testis-specific protein kinase 2 (Homo sapiens) (UniProt Q96S53); conditions: Compound concentration 1.0 uM
# [20] = target: Serine/threonine-protein kinase ULK2 (Homo sapiens) (UniProt Q8IYT8); conditions: Compound concentration 1.0 uM
# [21] = target: Activin receptor type-2B (Homo sapiens) (UniProt Q13705); conditions: Compound concentration 1.0 uM
# [22] = target: RAC-gamma serine/threonine-protein kinase (Homo sapiens) (UniProt Q9Y243); conditions: Compound concentration 1.0 uM
# [23] = target: Tyrosine-protein kinase receptor UFO (Homo sapiens) (UniProt P30530)
# Sequence of Tyrosine-protein kinase receptor UFO (Homo sapiens) (P30530 whole entry): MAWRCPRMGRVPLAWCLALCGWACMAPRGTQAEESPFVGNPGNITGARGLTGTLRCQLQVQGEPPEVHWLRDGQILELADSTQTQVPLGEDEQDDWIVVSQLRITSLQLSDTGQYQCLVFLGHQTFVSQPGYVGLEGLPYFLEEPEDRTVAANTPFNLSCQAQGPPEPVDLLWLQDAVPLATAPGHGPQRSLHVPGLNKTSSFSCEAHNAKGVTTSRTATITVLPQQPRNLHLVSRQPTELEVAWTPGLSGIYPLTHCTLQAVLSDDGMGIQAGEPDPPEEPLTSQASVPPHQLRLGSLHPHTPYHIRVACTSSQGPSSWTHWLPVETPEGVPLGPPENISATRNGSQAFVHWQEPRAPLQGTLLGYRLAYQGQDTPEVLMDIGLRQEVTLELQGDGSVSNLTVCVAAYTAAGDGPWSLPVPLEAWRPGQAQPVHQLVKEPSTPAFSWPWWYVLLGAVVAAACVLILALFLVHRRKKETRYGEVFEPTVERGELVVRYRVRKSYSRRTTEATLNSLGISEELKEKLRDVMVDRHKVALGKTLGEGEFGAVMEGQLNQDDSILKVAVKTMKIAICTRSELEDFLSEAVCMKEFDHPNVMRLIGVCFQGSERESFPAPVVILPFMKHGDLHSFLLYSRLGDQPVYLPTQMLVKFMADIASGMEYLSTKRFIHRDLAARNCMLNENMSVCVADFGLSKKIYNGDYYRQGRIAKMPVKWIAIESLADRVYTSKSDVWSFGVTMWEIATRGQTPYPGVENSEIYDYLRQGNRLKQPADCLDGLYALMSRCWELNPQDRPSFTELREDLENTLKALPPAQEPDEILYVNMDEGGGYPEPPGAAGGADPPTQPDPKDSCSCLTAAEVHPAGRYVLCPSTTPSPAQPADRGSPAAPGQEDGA
# [24] = target: Calcium/calmodulin-dependent protein kinase type 1D (Homo sapiens) (UniProt Q8IU85); conditions: Compound concentration 1.0 uM
# [25] = target: Casein kinase II subunit alpha (Homo sapiens) (UniProt P68400)
# Sequence of Casein kinase II subunit alpha (Homo sapiens) (P68400 whole entry, looked up): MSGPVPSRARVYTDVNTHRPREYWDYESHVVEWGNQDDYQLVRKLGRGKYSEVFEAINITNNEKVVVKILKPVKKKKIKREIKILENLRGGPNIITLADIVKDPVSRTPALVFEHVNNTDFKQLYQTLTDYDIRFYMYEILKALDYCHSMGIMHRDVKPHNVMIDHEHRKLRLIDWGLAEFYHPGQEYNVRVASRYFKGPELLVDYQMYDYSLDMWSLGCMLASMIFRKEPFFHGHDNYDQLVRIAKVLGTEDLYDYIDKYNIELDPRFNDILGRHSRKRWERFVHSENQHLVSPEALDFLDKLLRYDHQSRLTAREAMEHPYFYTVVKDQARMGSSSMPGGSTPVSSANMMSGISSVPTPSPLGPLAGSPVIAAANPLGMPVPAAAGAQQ
# [26] = target: Dual specificity tyrosine-phosphorylation-regulated kinase 1A (Homo sapiens) (UniProt Q13627); conditions: Compound concentration 1.0 uM
# [27] = target: Fibroblast growth factor receptor 1 (Homo sapiens) (UniProt P11362)
# Sequence of Fibroblast growth factor receptor 1 (Homo sapiens) (P11362 22-822 limits assumed): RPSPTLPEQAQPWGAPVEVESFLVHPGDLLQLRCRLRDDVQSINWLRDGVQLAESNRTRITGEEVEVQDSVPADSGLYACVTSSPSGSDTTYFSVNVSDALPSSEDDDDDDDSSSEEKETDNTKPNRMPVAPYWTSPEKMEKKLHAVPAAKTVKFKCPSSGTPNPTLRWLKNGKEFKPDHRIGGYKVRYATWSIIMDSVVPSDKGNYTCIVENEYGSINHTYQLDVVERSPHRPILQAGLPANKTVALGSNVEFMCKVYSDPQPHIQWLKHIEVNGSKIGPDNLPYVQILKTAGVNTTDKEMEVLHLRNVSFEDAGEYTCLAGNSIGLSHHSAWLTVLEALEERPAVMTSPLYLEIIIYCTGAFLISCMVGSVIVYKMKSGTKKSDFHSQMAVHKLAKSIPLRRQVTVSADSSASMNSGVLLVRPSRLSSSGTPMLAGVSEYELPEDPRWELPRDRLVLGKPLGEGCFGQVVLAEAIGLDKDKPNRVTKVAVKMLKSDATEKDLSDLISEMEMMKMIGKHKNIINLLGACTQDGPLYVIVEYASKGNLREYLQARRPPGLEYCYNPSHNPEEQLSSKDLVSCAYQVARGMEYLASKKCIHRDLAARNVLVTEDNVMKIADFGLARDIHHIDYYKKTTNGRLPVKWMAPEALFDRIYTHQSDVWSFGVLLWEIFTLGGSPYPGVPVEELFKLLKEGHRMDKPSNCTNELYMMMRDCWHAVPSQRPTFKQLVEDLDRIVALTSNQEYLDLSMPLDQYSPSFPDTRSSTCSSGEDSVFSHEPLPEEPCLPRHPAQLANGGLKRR
# [28] = target: Vascular endothelial growth factor receptor 1 (Homo sapiens) (UniProt P17948); conditions: Compound concentration 1.0 uM
# [29] = target: Mitogen-activated protein kinase kinase kinase 11 (Homo sapiens) (UniProt Q16584); conditions: Compound concentration 1.0 uM
# [30] = target: Mitogen-activated protein kinase kinase kinase 5 (Homo sapiens) (UniProt Q99683); conditions: Compound concentration 1.0 uM
# [31] = target: Mitogen-activated protein kinase kinase kinase 9 (Homo sapiens) (UniProt P80192); conditions: Compound concentration 1.0 uM
# [32] = target: Mitogen-activated protein kinase 14 (Homo sapiens) (UniProt Q16539)
# Sequence of Mitogen-activated protein kinase 14 (Homo sapiens) (Q16539 whole entry): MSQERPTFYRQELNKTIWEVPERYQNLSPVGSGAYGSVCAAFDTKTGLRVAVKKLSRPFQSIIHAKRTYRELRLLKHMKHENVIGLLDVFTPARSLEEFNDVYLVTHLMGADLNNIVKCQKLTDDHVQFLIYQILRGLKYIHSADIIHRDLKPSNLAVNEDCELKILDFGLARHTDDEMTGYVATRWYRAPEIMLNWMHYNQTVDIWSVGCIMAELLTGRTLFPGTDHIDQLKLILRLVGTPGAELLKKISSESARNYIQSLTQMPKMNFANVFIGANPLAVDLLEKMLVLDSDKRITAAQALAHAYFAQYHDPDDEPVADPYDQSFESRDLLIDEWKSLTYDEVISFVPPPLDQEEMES
# [33] = target: Mitogen-activated protein kinase 8 (Homo sapiens) (UniProt P45983)
# Sequence of Mitogen-activated protein kinase 8 (Homo sapiens) (P45983 whole entry): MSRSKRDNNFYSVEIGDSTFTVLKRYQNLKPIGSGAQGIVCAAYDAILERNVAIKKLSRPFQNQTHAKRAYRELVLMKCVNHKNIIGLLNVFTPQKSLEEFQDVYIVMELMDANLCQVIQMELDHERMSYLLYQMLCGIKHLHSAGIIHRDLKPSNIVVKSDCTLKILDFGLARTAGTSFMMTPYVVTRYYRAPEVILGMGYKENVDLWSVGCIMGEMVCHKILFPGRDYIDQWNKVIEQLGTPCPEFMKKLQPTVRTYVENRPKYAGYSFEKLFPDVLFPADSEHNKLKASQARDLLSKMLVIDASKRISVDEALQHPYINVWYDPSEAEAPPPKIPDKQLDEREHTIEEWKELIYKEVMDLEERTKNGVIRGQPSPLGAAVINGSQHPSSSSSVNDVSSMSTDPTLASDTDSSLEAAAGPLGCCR
# [34] = target: Mitogen-activated protein kinase 9 (Homo sapiens) (UniProt P45984); conditions: Compound concentration 1.0 uM
# [35] = target: Serine/threonine-protein kinase MARK2 (Homo sapiens) (UniProt Q7KZI7)
# Sequence of Serine/threonine-protein kinase MARK2 (Homo sapiens) (Q7KZI7 whole entry): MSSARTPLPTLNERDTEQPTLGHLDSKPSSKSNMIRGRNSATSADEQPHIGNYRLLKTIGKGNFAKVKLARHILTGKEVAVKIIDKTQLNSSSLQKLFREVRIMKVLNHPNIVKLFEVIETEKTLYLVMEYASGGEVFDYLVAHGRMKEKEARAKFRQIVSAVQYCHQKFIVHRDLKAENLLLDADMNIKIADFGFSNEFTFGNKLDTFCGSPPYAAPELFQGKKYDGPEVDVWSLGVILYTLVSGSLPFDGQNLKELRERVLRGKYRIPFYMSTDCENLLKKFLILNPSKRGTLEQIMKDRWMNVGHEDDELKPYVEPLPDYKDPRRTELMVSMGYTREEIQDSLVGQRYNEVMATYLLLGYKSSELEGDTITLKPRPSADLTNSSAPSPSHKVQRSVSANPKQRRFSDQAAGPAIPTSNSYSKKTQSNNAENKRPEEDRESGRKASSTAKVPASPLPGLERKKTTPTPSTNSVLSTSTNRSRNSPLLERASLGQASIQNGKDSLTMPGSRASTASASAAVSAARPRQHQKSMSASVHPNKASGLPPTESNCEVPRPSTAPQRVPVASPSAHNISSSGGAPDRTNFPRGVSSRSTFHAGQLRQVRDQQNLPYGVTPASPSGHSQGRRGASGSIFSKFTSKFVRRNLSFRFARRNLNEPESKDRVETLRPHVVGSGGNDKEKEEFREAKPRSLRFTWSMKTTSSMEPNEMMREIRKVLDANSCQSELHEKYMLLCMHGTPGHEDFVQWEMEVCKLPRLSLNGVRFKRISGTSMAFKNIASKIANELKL
# [36] = target: Serine/threonine-protein kinase PAK 4 (Homo sapiens) (UniProt O96013)
# Sequence of Serine/threonine-protein kinase PAK 4 (Homo sapiens) (O96013 whole entry, looked up): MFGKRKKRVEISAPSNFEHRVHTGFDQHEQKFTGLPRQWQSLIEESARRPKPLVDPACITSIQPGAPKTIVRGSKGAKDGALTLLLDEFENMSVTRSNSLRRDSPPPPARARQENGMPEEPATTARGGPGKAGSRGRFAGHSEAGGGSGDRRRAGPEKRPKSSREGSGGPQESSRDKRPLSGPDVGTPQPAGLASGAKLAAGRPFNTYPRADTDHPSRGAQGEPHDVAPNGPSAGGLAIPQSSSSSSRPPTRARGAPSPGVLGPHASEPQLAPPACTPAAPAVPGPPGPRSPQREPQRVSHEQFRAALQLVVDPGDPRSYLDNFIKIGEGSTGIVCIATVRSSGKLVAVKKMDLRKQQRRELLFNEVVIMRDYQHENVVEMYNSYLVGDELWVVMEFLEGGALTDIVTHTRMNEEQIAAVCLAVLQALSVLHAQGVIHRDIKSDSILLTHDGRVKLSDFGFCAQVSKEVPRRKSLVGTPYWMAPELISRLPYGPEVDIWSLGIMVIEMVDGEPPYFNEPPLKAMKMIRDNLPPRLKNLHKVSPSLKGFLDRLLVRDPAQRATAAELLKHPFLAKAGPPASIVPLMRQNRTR
# [37] = target: Receptor-interacting serine/threonine-protein kinase 2 (Homo sapiens) (UniProt O43353); conditions: Compound concentration 1.0 uM
# [38] = target: Tyrosine-protein kinase Srms (Homo sapiens) (UniProt Q9H3Y6); conditions: Compound concentration 1.0 uM
# [39] = target: SRSF protein kinase 3 (Homo sapiens) (UniProt Q9UPE1); conditions: Compound concentration 1.0 uM
# [40] = target: Tyrosine-protein kinase Tec (Homo sapiens) (UniProt P42680); conditions: Compound concentration 1.0 uM
# [41] = target: Mitogen-activated protein kinase kinase kinase 20 (Homo sapiens) (UniProt Q9NYL2); conditions: Compound concentration 1.0 uM
# [42] = target: Serine/threonine-protein kinase 3 (Homo sapiens) (UniProt Q13188); conditions: Compound concentration 10.0 uM
# [43] = target: Lymphokine-activated killer T-cell-originated protein kinase (Homo sapiens) (UniProt Q96KB5); conditions: Compound concentration 10.0 uM
compound,measurement,setting,value
CCC(F)(F)c1cc(N2CCC(S(C)(=O)=O)CC2)nc2sc(C(N)=O)c(N)c12 [BI-605906],Ki,[1],2620 nM
same,pKi,[1],5.59
same,IC50,[2],7000 nM (not active)
same,residual activity,[3],53%
same,residual activity,[4],77%
same,residual activity,[5],102%
same,residual activity,[6],112%
same,residual activity,[7],80%
same,residual activity,[8],125%
same,residual activity,[9],88%
same,residual activity,[10],70%
same,residual activity,[11],62%
same,residual activity,[12],81%
same,residual activity,[13],75%
same,residual activity,[14],83.3%
same,inhibition,[15],-0.02%
same,inhibition,[16],21.1%
same,residual activity,[17],100%
same,residual activity,Rattus norvegicus,97%
same,residual activity,[18],99%
same,residual activity,[19],90%
same,residual activity,[20],93%
same,residual activity,[21],91%
same,residual activity,[22],91%
same,residual activity,[23]; Compound concentration 1.0 uM,98%
same,residual activity,[23]; Compound concentration 10.0 uM,85%
same,residual activity,[24],98%
same,residual activity,[25]; Compound concentration 1.0 uM,92%
same,residual activity,[25]; Compound concentration 10.0 uM,107%
same,residual activity,[26],91%
same,residual activity,[27]; Compound concentration 1.0 uM,84%
same,residual activity,[27]; Compound concentration 10.0 uM,91%
same,residual activity,[28],100%
same,residual activity,[29],95%
same,residual activity,[30],99%
same,residual activity,[31],108%
same,residual activity,[32]; Compound concentration 1.0 uM,92%
same,residual activity,[32]; Compound concentration 10.0 uM,60%
same,residual activity,[33]; Compound concentration 1.0 uM,91%
same,residual activity,[33]; Compound concentration 10.0 uM,100%
same,residual activity,[34],98%
same,residual activity,[35]; Compound concentration 1.0 uM,90%
same,residual activity,[35]; Compound concentration 10.0 uM,87%
same,residual activity,[36]; Compound concentration 1.0 uM,95%
same,residual activity,[36]; Compound concentration 10.0 uM,80%
same,residual activity,[37],94%
same,residual activity,[38],99%
same,residual activity,[39],99%
same,residual activity,[40],96%
same,residual activity,[41],97%
same,residual activity,[42],91%
same,residual activity,[43],100%
